Reference: BindingDB's records for doi:10.1021/jm960092w (Agouron Pharmaceuticals, 1996)

Target: T1, Dimer of Gag-Pol polyprotein [489-587] (Human immunodeficiency virus 1, UniProt P12497)
T1 construct: 489-587
Assay: Protease Inhibition Assay
Conditions: pH 5.6; 37 °C
Experimental: Protease activity was measured by continuous chromogenic assay. The chromogenic peptide His-Lys-Ala-Arg-Val-Leu-(p-NO2-Phe)-Glu-Ala-Nleu-Ser was used as a substrate. Reactions were followed by the decrease of absorbance at 300 nm measured by spectrophotometer. Experimental results were analyzed by the nonlinear regression analysis, using a mathematical model for tight binding inhibitors.

Q: Which Ki does the source give for `CC(C)(C)NC(=O)c1ccccc1C[C@@H](O)[C@H](Cc1ccccc1)NC(=O)[C@H](CC(N)=O)NC(=O)c1ccc2ccccc2n1` [(2S)-N-[(2S,3R)-4-[2-(tert-butylcarbamoyl)phenyl]-3-hydroxy-1-phenylbutan-2-yl]-2-(quinolin-2-ylformamido)butanediamide] here?
A: 2 nM
